Tests used:
[1] = test system: E. coli strains AW574 or AW405; assay: Lysis of E. coli by terpenes (galactosidase activity, ONPG, 420 nm)
Description: Lysis of the cell membrane was monitored by the determination of galactosidase activity. […] This enzyme is inducible in the presence of isopropyl-1-thiogalactosidase (IPTG) and assayed colorimetricaly with substrate o-nitro-phenyl-B-D-galactoside (ONPG). ONPG is cleaved to release o-nitrophenol with peak absorvance at 420 nm. Since intact E. coli is impermeable to both ONPG and the enzyme, the cells have to be lysed prior to enzymatic assay. Therefore the ability of terpenes to lyse E. coli can be measured with this enzymatic assay and compared to known lysing agents. The procedure used was as follows: E. coli strains AW574 or AW405 were cultured overnight in 10 ml tryptone broth with 1 nM IPTG at 35° C. Cells were allowed to growth after an absorbance equal to 0.9 was reached. Cells were harvested, washed with phosphate buffer and resuspended to an absorbance equal to 0.5. One tenth of a ml of the bacteria culture was added to 0.9 ml of buffer, warmed to 30° C. and then 80 ul of terpenes (85% terpenes and 15% polysorbate-80), 80 ul water (background) or 40 ul chloroform plus 40 ul 1% SDS in water (positive control) were added. After the addition of the lysing agents the tubes were mixed for 10 seconds and 0.2 ml of ONPG (4 mg/ml water) was added, then incubated for 5 minutes. The enzyme activity was stopped with 0.5 ml of 1 M sodium carbonate. After being centrifuged for 3 minutes at 1,500×g, supernatant was transferred to cuvettes and read at 420 nm. The relative degree of lysis caused by terpenes was calculated as follows:
100×(OD terpenes−OD water)/(OD chloroform−OD water)

E. coli = details: cited from earlier work

CC(C)=CCC/C(C)=C/CO [Geraniol]
Relative lysis % ([1]; Geraniol 3.63 uM, relative to SDS + chloroform = 100%): 2.4%
Relative lysis % ([1]; Geraniol 363 uM, relative to SDS + chloroform = 100%): 34%
Relative lysis % ([1]; Geraniol 3,630 uM, relative to SDS + chloroform = 100%): 98%
Relative lysis % ([1]; Geraniol 36,300 uM, relative to SDS + chloroform = 100%): 96%

CC(C)=CCCC(C)=CC=O [citral]
citral concentration in media that reduced the concentration of E. coli (E. coli): more than 0.01%
citral concentration with bactericidal effect (E. coli; in media): 0.08%

Polysorbate-80 [reference compound]
Relative lysis % ([1]; 80 ul Polysorbate-80 alone): 3.2%
